Laboratory results: patent publication US8937065B2, “Compositions and methods for modulating a kinase” (Clevexel Pharma, priority 2011, dated 2015)

Legend:
Mouse PK (PO) = conditions: in vivo
[1] = test system: B-cell lymphoma (Daudi cell line) xenograft; experiment: Mouse xenograft study with B-cell lymphoma (Daudi cell line); assay type: in vivo; conditions: 28 days, Balb/c nude mice
Protocol: The anti-tumor effect of compounds of the invention can be evaluated in vivo. For example, the anti-tumor effect of compound 7A was determined using a mouse xenograft study with B-cell lymphoma (Daudi cell line). Mice (n=8 all) were administered compound 7A over a period of 28 days. The compound was dosed at 100 mg/kg IP QD and 300 mg/kg PO QD. Tumor volume was measured over time.
The Daudi cell line culture was prepared using Daudi cell line (ATCC, USA), RPMI 1640 medium (Invitrogen, USA), and FBS (Invitrogen, Australia). […]
The mice were weighed at each dosing and recorded every day. Tumor size was measured every other day in two dimensions using a caliper, and the volume was expressed in mm^3 using the formula: V=0.5 a×b^2 where a and b were the long and short diameters of the tumor, respectively. […] Tumor volume, weight of dissected tumors, and mouse body weight were measured and recorded. […]
The difference between the mean values of tumor volume in treated and vehicle groups was analyzed for significance using one way ANOVA test at each time point after log transformation. The difference between the mean values of tumor weight in treated and vehicle groups was analyzed for significance using t-test. […]

Q: For `O=C(CN1CCOCC1)Nc1cccc(-c2nc(-c3c[nH]c(C(=O)N4CCCC4)c3)cs2)c1` [7A, 2-morpholino-N-(3-(4-(5-(pyrrolidine-1-carbonyl)-1H-pyrrol-3-yl)thiazol-2-yl)phenyl)acetamide], which bioavailability (Mouse PK (PO); read-out: Mouse PK (PO) % F) is on record?
A: Its bioavailability is 88%.

Q: And the half-life (Mouse PK (PO); read-out: Mouse PK (PO) T½ (converted))?
A: Its half-life is 3.2 h.

Q: What about the tumor growth inhibition ([1]; 100 mg/kg IP QD) of the same compound?
A: The tumor growth inhibition was 89%.

Q: What about the tumor growth inhibition ([1]; 300 mg/kg PO QD) of the same compound?
A: Its tumor growth inhibition is 87%.
